Consider one compound from paper PMC4922569, “Antifibrotic Effects of the Dual CCR2/CCR5 Antagonist Cenicriviroc in Animal Models of Liver and Kidney Fibrosis” (PLoS ONE, 2016).

The test system of series [1] is UUO-induced renal fibrosis. Description: Mouse model of UUO-induced renal fibrosis. It counts as in vivo. The conditions noted are these: for Reduction of UUO-induced increase in Collagen Volume Fraction (±SEM) vs UUO control: p < 0.05. The protocol:
Unilateral ureter obstruction is a commonly used experimental model of kidney injury, in which interstitial inflammation, tubular cell injury/death and fibrosis, ensue. The protocol was approved by Plato BioPharma, Inc. IACUC (PBI; approval number 2013–04). The care and use of animals was conducted in accordance with the NIH Guide for the Care and Use of Laboratory Animals (2010), […] Guidelines on Euthanasia (2007), Office of Laboratory Animal Welfare Institutional Animal Care and Use Committee Guidebook (2002), Public Health Service Policy on Humane Care and Use of Laboratory Animals (2002), PBI standard operating procedures on a) moribund sacrifice, b) vivarium maintenance and animal care, and c) animal handling and dosing. Anesthesia was performed by isoflurane […]; animals were euthanized by diaphragm laceration followed by heart laceration while under isoflurane anesthesia.
Male CD-1 mice (n = 51; 7–8 weeks of age; Charles River Laboratories, USA) were allocated to weight-matched treatment groups on Day -1 (1 day prior to either sham [one group] or permanent right UUO surgery [five groups] via aseptic laparotomy). From Days -1 to 4, mice received phosphate-buffered saline (PBS) IP QD, apart from a positive-control group, which received 1D11 (anti-TGF-beta1 antibody) 3 mg/kg IP QD. From Days 0 to 5, mice received vehicle control (sham surgery, UUO-control and UUO+positive-control groups) or CVC 7 mg/kg/day (CVC7), CVC20 or CVC100 PO BID (S1 Table). The CVC100 group was terminated due to poor clinical condition (6/9 animals died and 3/9 euthanized prior to end of study). […]
In the UUO model, ten images/depth/kidney were assessed in a blinded fashion using Axio Imager.A2 (Zeiss, USA) light microscopy (at 200x magnification to enable 60–70% sampling of renal cortical area) and quantified by a composite Collagen Volume Fraction (CVF [% total area imaged]) score expressed as the average positive stain across three anatomically distinct ([…] apart) tissue sections, or depths, from the obstructed kidney.
In the UUO model, frozen renal cortical tissue biopsies were hydrolyzed and centrifuged, and the supernatant was analyzed by OD absorbance at 560 nm on a SpectraMax® 190 (Molecular Devices, USA). Standard curves for conversion of ODs to concentrations were generated using linear regression and sample concentrations were determined using SoftMax® Pro5 software (Molecular Devices, USA).
In the UUO model, mRNA expression levels in renal cortical tissue were evaluated using the QuantiGene® Plex 2.0 profiling platform (Affymetrix, USA). […]
In the UUO model, data are expressed as mean ±SEM. […]

The nature of series [2]: Body and liver weights, TAA model. It counts as in vivo, rat. The conditions noted are these: average±SD. The protocol: Using male Sprague-Dawley rats (n = 72, 10–12 weeks of age; Harlan Laboratories, USA), fibrosis was induced by IP administration of TAA at a dose of 150 mg/kg three times per week for 8 weeks. Rats (n = 4–8/group) received vehicle control, CVC 30 mg/kg/day (CVC30) or CVC100 QD PO during Weeks 0–8 (early intervention), Weeks 4–8 (established fibrosis) or Weeks 8–12 (cirrhosis reversal) and were sacrificed at Weeks 8, 8 or 12, respectively (S1 Table). Study endpoints included: body and liver weights, liver biochemistry (e.g. serum alanine and aspartate aminotransferase [ALT/AST]), extracellular matrix protein expression in liver tissue (collagen type 1 and alpha-SMA), mRNA expression (collagen type 1, alpha-SMA, beta-platelet-derived growth factor-beta receptor, TGF beta-receptor, matrix metalloproteinase 2, tissue inhibitor of metalloproteinases 1 [TIMP1] and 2 [TIMP2]) and liver morphology. For liver-function testing, plasma samples were obtained from blood collected from the vena cava. Livers were sectioned and fixed in 3.7% formalin, embedded in paraffin, cut at […] thickness and stained with hematoxylin and eosin (H&E) for histological examination.
Body weight (measured before and during treatment) and sacrificed animal body and liver/kidney/spleen weights were recorded.

For series [3], the system named is CCl4-induced liver injury. The conditions noted are these: cited from earlier work.
Setting [4] is: cirrhosis reversal, CVC 30 mg/kg/day.
The mark [5] stands for this setting: cirrhosis reversal, CVC 100 mg/kg/day.
Where [6] appears, read: early intervention, CVC 30 mg/kg/day.
Setting [7] is: early intervention, CVC 100 mg/kg/day.
Where [8] appears, read: established fibrosis, CVC 30 mg/kg/day.
The mark [9] stands for this setting: established fibrosis, CVC 100 mg/kg/day.

Counter-ions that a name gives are not always drawn.

For `CCCCOCCOc1ccc(-c2ccc3c(c2)/C=C(/C(=O)Nc2ccc([S@@+]([O-])Cc4cncn4CCC)cc2)CCCN3CC(C)C)cc1` [CVC, cenicriviroc mesylate], the “Effect on UUO-induced increase in obstructed kidney hydroxyproline content” value in series [1] (CVC7, CVC20 PO BID) is recorded as “did not affect”. Also, the “Reduction of UUO-induced increase in Collagen Volume Fraction (±SEM) vs UUO control” value in series [1] (CVC7 PO BID Days 0-5) is 28.6%±8.8; in series [1] (CVC20 PO BID Days 0-5, single outlier removed), 31.8%±6.8. For the same compound, in series [1] (CVC7 and CVC20, trend, relative to UUO control), the “Inhibition of UUO-induced increases in obstructed renal cortical mRNA expression of fibrogenic genes” value is “did not reach statistical significance”. Moreover, the Final body weight in series [2] (setting [4]) turned out to be 390.3 ± 9.3 g; in series [2] (setting [5]) it was 386.4 ± 4.9 g; in series [2] (setting [6]), 330.9 ± 6.4 g; in series [2] (setting [7]), 347.2 ± 6.9 g; in series [2] (setting [8]) it was 342.0 ± 7.7 g; in series [2] (setting [9]) it was 327.3 ± 7.8 g. Besides, the Liver weight in series [2] (setting [4]) came to 19 ± 0.7 g; in series [2] (setting [5]), 18.5 ± 0.7 g; in series [2] (setting [6]), 17.9 ± 1.6 g; in series [2] (setting [7]), 17.5 ± 0.5 g; in series [2] (setting [8]), 15.6 ± 0.6 g; in series [2] (setting [9]), 15.8 ± 0.9 g. Further, the Liver-to-body weight ratio amounted to 4.9±0.2% in series [2] (setting [4]); 4.8±0.2% in series [2] (setting [5]); 5.4±0.5% in series [2] (setting [6]); 5.0±0.1% in series [2] (setting [7]); 4.6±0.1 % in series [2] (established fibrosis, CVC 30 mg/kg/day, p < 0.05 vs vehicle control); 4.8±0.2% in series [2] (setting [9]). The “Infiltration of Ly6Chi monocyte-derived macrophages into the liver” value in series [3] (CCl4 model, preliminary data) was “significantly decreased”. In addition, in series [3] (acute CCl4 model), the Necrotic area entry is “significant reduction”.
